Patent US6696433B2, “Use of sex steroids function modulators to treat wounds and fibrotic disorders” (Renovo Limited, priority 1996, dated 2004)
Marks after values point to notes of the source that are not given here.

Legend:
[1] = tested on: Human dermal fibroblasts; assay: Fibroblast proliferation, [3H] thymidine incorporation; type: cell-based; settings: for proliferation of fibroblasts: doses 1 pM to 1 mM, 24 hrs, fibroblasts from young and aged subjects, compared to cyclodextrin controls
Protocol: (§1) Human dermal fibroblasts were explanted from the 4 mm punch biopsy specimens of normal skin. Fibroblasts used in the study were cultured at 37° C. in 95% air; 5% CO2 at 100% relative humidity, in phenol red-free DMEM (Gibco), 100 U/ml penicillin, […], 1 mM sodium pyruvate, 2 mM L-glutamine, non-essential amino acids and charcoal-stripped 10% FCS (Gibco, UK) (to remove endogenous steroids).
(§2) Cultured cells at passage 3-5 were seeded overnight in 24-well plates at a density of 2×10^5 cells per well in serum free media. The following morning oestrogen or progesterone (made soluble by the incorporation of the carrier cyclodextrin; Sigma, Poole), ranging from 1 pM to 1 mM doses, were added to the medium for 24 hrs. All samples were assessed in triplicate. The media was removed after the 24 hr incubation. 1 mg/ml of aprotinin, leupeptin and pepstatin A was then added to the media which was used immediately in a TGF-β assay (see below). Controls included cyclodextrin at the appropriate concentration, and serum-free medium alone.
The cells were then incubated with [^3H] thymidine in serum-free medium (0.5 μCi/well) to assess the effect of oestrogen or progesterone on fibroblast proliferation. After 24 hrs, the thymidine solution was aspirated and replaced by 10% TCA for 4 hrs at 4° C. The TCA was replaced by 250 μls 1M NaOH solution for 18 hrs. Two 100 μl aliquots from each well were measured for radioactivity in a scintillation counter. In parallel experiments, the effect of hormones/controls on protein synthesis was investigated by the addition of 20 μg/ml cycloheximde (to inhibit protein translation) for 15 mins prior to the 24 hr incubation period.

[2] = tested on: TGF-β1 mRNA; assay: Dermal fibroblast TGF-β1 mRNA levels by quantitative RT-PCR; type: cell-based, human
Protocol: as §1, §2
Quantitative RT-PCR was used to determine the steady-state levels of TGF-β1 mRNA in the acute wound and in 10^5 cells from the fibroblast in vitro studies (2.1.5) Cellular RNA was isolated from specimens using the method of Chomcynski and Sacchi (Anal, Biochem, 162 p156-159 (1987)). Purity of extraction was assessed using the A260/280 ratio spectrophotometrically, which in all cases was above 1.75. […] Quantitative RT-PCR was performed as described by Tarnuzzer et al. (Biotechniques 20 p670-674 (1996)) Briefly, the reverse transcriptase reaction was carried out using 8 decreasing dilutions of template with 1 μg of authentic cellular RNA. β-actin was used as a positive control. PCR reactions were carried out on the reverse transcription reaction. Electrophoresis was then carried out on a 2% agarose gel containing […] ethidium bromide at 100 v for 1 hr using an Electro 4 tank (Hybaid, Teddington, UK) and photographed using a dual intensity transilluminator (Genetic Research instrumentation, Dunmow (UK) with a Polaroid MP 4+ camera and 665 Polaroid Black and White film, Photographic images were captured using a PC Image Software system (Foster Finley, Newcastle, UK) on a 486 DX2 Dan computer (Dan, UK) and a CCD camera (Swift, UK). The band intensities were determined by image analysis using a Macintosh computer and NIH software programme. Band intensity values were normalised based on the molecular weights of the products. The log of the ratio of band intensities within each lane was plotted against the log of the copy number of template added per reaction. Quantities of target messages were determined where the ratio of template and target band intensities were equal to 1. Copy numbers were expressed per total RNA (for wound tissue) or expressed per cell (for in vitro studies). The latter were calculated by assuming 26 pg RNA/cell.

[3] = tested on: 4 mm punch biopsy wounds of the upper inner arm; assay: Topical oestrogen patch clinical trial of wound healing in elderly men and women; type: in vivo, human; parameters: key to Collagen Quantities: +=minimal quantities; ++=less than normal skin; +++=similar to normal skin; ++++=greater than normal skin; settings: for Collagen Quantities: oestradiol patch, DAY 7; for % Rate of re-epithelialisation / Wound area: day 7 post-wounding; for scarring, microscopically and macroscopically (FIGS. 7 and 8): scored as in 2.1.4.2
Protocol: Approval for this study was given by the local Ethics Committee. Forty health-status defined volunteers split into four groups: (i) GROUP 3A comprised ten women with mean age 76.3 yr (Sd 5.6) who received oestrogen supplements (25 μg/24 hrs of oestradiol) (ii) GROUP 3B comprised ten women with mean age 72.5 yr (Sd 7.1) who received placebo instead of oestrogen. (iii) GROUP 3C comprised ten men with mean age 69.6 yr (Sd 3.6) who received oestrogen supplements (ii) GROUP 3D comprised ten men with mean age 71.8 yr (Sd 8.9) who received placebo instead of oestrogen. After informed consent subjects from each of Groups 3A, 3B, 3C and 3D underwent two 4 mm punch biopsies from the upper inner arm (a non sun-exposed site) following local infiltration with 1 ml 1% lignocaine. Each biopsy of normal skin was bisected and one-half embedded in Optimal Cutting Temperature compound (Miles Inc. Elkhart, Ind.), frozen over liquid nitrogen, and stored at −70° C., and one-half snap-frozen in liquid nitrogen and stored at −70° C. The area for biopsy was covered by a 2×3 cm patch (placebo Groups 3B and 3D or active oestradiol 3A and 3C) through which the biopsies were made. The patch was covered by a Multisorb dry gauze dressing (Smith & Nephew) and both were removed after 24 hrs. The active patches contained sufficient oestradiol such that the wound sites were exposed to 25 μg/24 hrs of oestradiol. Five subjects from Groups 3A, 3B, 3C and 3D underwent re-excision of the wounds at day 7 post-wounding, and the other five subjects from each group at day 84 post-wounding. The left upper inner arm was cleaned with isopropyl alcohol, elliptical excisions of the wounds were made following 1% lignocaine infiltration and two sutures were used to close the gap. Each wound was bisected and processed as described above (3.1.3). 7 μm paraffin-embedded sections were strained with H&E and Masson's Trichrome. The rate of re-epithelialisation (at day 7 post-wounding), and wound sizes as determined by planimetry, were determined with image analysis using an Olympus Vanox camera and PC image capture system. Collagen quantity within the wound was determined by two observers blinded to the identity of the specimen on the following scale +=minimal quantities; ++=less than normal skin; +++=similar to normal skin; ++++=greater than normal skin. The wound stiffness at day 80 was determined using the non-disruptive Dimensional Analysis System (Das). Previous studies have correlated wound breaking strength values (ultimate pressure at failure) to wound stiffness using this system. The system applies a multiaxial load (negative pressure) to the wound and measures the deformation due to the load of two reflective targets placed at the wound edges, using a high resolution camera and video processor. Pressure was applied to a maximum of 100 mmHg and then released, Stiffness was measured between 20 and 80 mmHg.

[4] = OLD person (2A or 2B) fibroblasts, mM dose
[5] = OLD person (2A or 2B) fibroblasts, nM dose
[6] = OLD person (2A or 2B) fibroblasts, pM dose
[7] = OLD person (2A or 2B) fibroblasts, μM dose
[8] = YOUNG person (2C) fibroblasts, mM dose
[9] = YOUNG person (2C) fibroblasts, nM dose
[10] = YOUNG person (2C) fibroblasts, pM dose
[11] = YOUNG person (2C) fibroblasts, μM dose
[12] = FEMALES (3A), patch 25 μg/24 hrs of oestradiol for 24 hrs
[13] = MALES (3C), patch 25 μg/24 hrs of oestradiol for 24 hrs

Compound	proliferation of fibroblasts [1]	TGF-beta mRNA LEVELS [2, 4] [copies/cell]	TGF-beta mRNA LEVELS [2, 5] [copies/cell]	TGF-beta mRNA LEVELS [2, 6] [copies/cell]	TGF-beta mRNA LEVELS [2, 7] [copies/cell]	TGF-beta mRNA LEVELS [2, 8] [copies/cell]	TGF-beta mRNA LEVELS [2, 9] [copies/cell]	TGF-beta mRNA LEVELS [2, 10] [copies/cell]	TGF-beta mRNA LEVELS [2, 11] [copies/cell]	scarring, microscopically and macroscopically (FIGS. 7 and 8) [3]	further results
C[C@]12CC[C@@H]3c4ccc(O)cc4CC[C@H]3[C@@H]1CC[C@@H]2O [Oestrogen]	inhibited	990 ± 325	1100 ± 370	1155 ± 215	1100 ± 235	1250 ± 188	1300 ± 272	1190 ± 300	1180 ± 130	inferior quality of wound	TGF-β1 mRNA levels, control versus treated fibroblasts ([2]; varying concentrations of oestrogen, fibroblasts from all females regardless of age): No significant differences; Collagen Quantities ([3]; FEMALES (3A)): ++; % Rate of re-epithelialisation [3, 12]: 74.5 (10.5)* %; Wound area [3, 12]: 1204 (49)*; Collagen Quantities ([3]; MALES (3C)): ++; % Rate of re-epithelialisation [3, 13]: 62.5 (21.7) %; Wound area [3, 13]: 1173 (61)*; Wound area ([3]; oestrogen treatment, p<0.05): significantly reduced; Wound stiffness (Dimensional Analysis System) ([3]; day 80 post-wounding): not affected; rate of re-epithelialization ([3]; female (3A) and male subjects (3C) relative to placebo controls): accelerated
CC(=O)[C@H]1CC[C@H]2[C@@H]3CCC4=CC(=O)CC[C@]4(C)[C@H]3CC[C@]12C [Progesterone, progesterone]	inhibited	1300 ± 430	1000 ± 275	950 ± 210	1110 ± 290	1100 ± 310	1145 ± 206	1130 ± 254	1090 ± 280	superior scaring	degree of inhibition of fibroblast proliferation relative to oestrogen ([1]; at 1 mM, p<0.05): significantly greater degree than oestrogen
